System: tobacco budworm (Heliothis virescens)
Assay: Tobacco budworm (Heliothis virescens) I: 96-well microtiter plates with insect diet and eggs, egg and larval mortality
Format: in vivo
Details: 120 h, read-out: mortality (egg and larval mortality, visually assessed)
Method: B.1 Tobacco Budworm (Heliothis virescens) I
For evaluating control of tobacco budworm (Heliothis virescens) the test unit consisted of 96-well-microtiter plates containing an insect diet and 15-25 H. virescens eggs. The compounds were formulated using a solution containing 75% v/v water and 25% v/v DMSO. Different concentrations of formulated compounds were sprayed onto the insect diet at 10 μl, using a custom built micro atomizer, at two replications. After application, microtiter plates are incubated at about 28±1° C. and about 80±5% relative humidity for 5 days. Egg and larval mortality is then visually assessed.

SMILES	mortality at 2500 ppm [%]
Cc1cc(C2=NOC(c3cc(Cl)cc(Cl)c3)(C(F)(F)F)C2)ccc1C=NNC(=O)NCC(F)(F)F (centres unmarked) [Compound 1-1, 4-[5-(3,5-dichloro-phenyl)-5-trifluoromethyl-4,5-dihydro-isoxazol-3-yl]-2-methyl-benzaldehyde-4-trifluoroethylsemicarbazone]	≥ 75
CC(=NNC(=O)NCC(F)(F)F)c1ccc(C2=NOC(c3cc(Cl)cc(Cl)c3)(C(F)(F)F)C2)cc1C (centres unmarked) [Compound 1-19, 1-{4-[5-(3,5-dichloro-phenyl)-5-trifluoromethyl-4,5-dihydro-isoxazol-3-yl]-2-methyl-phenyl}-ethanone-4-trifluoroethylsemicarbazone]	≥ 75

From patent US9085541B2, “Process for producing imine compounds for combating invertebrate pests” (priority 2010, dated 2015)
